US9695155B2, “Herbicidal substituted pyrimidinyloxy benzene compounds” (E. I. DU PONT DE NEMOURS AND COMPANY, priority 2013, dated 2017)

How the values were obtained:
[1] = system: bromegrass, downy; assay: Test D preemergence; format: in vivo, Bromus tectorum; details: Bromus tectorum, pre-emergence, scale 0-100, read-out: Plant response rating, Bromegrass, Downy
Summary of the method: (§1)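 Seeds sown in silt loam soil got preemergence sprays; plants in peat/vermiculite potting medium were sprayed postemergence at 2–18 cm (1- to 4-leaf stage). Chemicals were formulated in a non-phytotoxic solvent mixture with surfactant. After 7 to 21 days in a controlled environment, injury was rated visually versus controls, 0 (no effect) to 100 (complete control).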

[2] = system: galium; assay: Test D preemergence; format: in vivo, Galium aparine; details: Galium, pre-emergence, scale 0-100, read-out: Plant response rating, Galium
Summary of the method: as §1

[3] = system: kochia; assay: Test D preemergence; format: in vivo, Kochia scoparia; details: Bassia scoparia, pre-emergence, scale 0-100, read-out: Plant response rating, Kochia
Summary of the method: as §1

[4] = system: bluegrass; assay: Test D postemergence; format: in vivo, Poa annua; details: Poa annua, post-emergence, Postemergence, scale 0 to 100 (0 no effect, 100 complete control), read-out: Plant response rating, Bluegrass
Summary of the method: as §1

[5] = system: wild radish; assay: Test D preemergence; format: in vivo, Raphanus raphanistrum; details: Raphanus raphanistrum, pre-emergence
Summary of the method: as §1

[6] = system: canarygrass; assay: Test D preemergence; format: in vivo, Phalaris minor; details: Phalaris minor, pre-emergence, scale 0-100, read-out: Plant response rating, Canarygrass
Summary of the method: as §1

[7] = system: kochia; assay: Test D postemergence; format: in vivo, Kochia scoparia; details: Bassia scoparia, post-emergence, scale 0 to 100 (0 no effect, 100 complete control), read-out: Plant response rating, Kochia
Summary of the method: as §1

[8] = system: green foxtail; assay: Test D postemergence; format: in vivo, Setaria viridis; details: Setaria viridis, post-emergence, scale 0 to 100 (0 no effect, 100 complete control), read-out: Plant response rating, Foxtail, Green
Summary of the method: as §1

[9] = system: windgrass; assay: Test D preemergence; format: in vivo, Apera spica-venti; details: Apera spica-venti, pre-emergence
Summary of the method: as §1

[10] = system: galium; assay: Test D postemergence; format: in vivo, Galium aparine; details: Galium, post-emergence, scale 0 to 100 (0 no effect, 100 complete control), read-out: Plant response rating, Galium
Summary of the method: as §1

[11] = system: canarygrass; assay: Test D postemergence; format: in vivo, Phalaris minor; details: Phalaris minor, post-emergence, scale 0 to 100 (0 no effect, 100 complete control), read-out: Plant response rating, Canarygrass
Summary of the method: as §1

**Q.** How did the pest or weed control at 31 g/ha ([1]; 31 g ai/ha) turn out when `N#Cc1cccc(Oc2ncc(Cl)cn2)c1-n1cc(Br)cn1` [Compound 52, 2-(4-bromo-1H-pyrazol-1-yl)-3-[(5-chloro-2-pyrimidinyl)oxy]benzonitrile] was run?
**A.** 0%

**Q.** And the pest or weed control at 62 g/ha ([1]; 62 g ai/ha)?
**A.** 0%

**Q.** What about the pest or weed control at 125 g/ha ([1]; 125 g ai/ha) of the same compound?
**A.** 0%

**Q.** And the pest or weed control at 250 g/ha ([1]; 250 g ai/ha)?
**A.** 0%

**Q.** What about the pest or weed control at 31 g/ha ([2]; 31 g ai/ha) of the same compound?
**A.** 10%

**Q.** What about the pest or weed control at 62 g/ha ([2]; 62 g ai/ha) of the same compound?
**A.** 20%

**Q.** And the pest or weed control at 125 g/ha ([2]; 125 g ai/ha)?
**A.** 75%

**Q.** What about the pest or weed control at 250 g/ha ([2]; 250 g ai/ha) of the same compound?
**A.** 70%

**Q.** What about the pest or weed control at 31 g/ha ([3]; 31 g ai/ha) of the same compound?
**A.** 95%

**Q.** And the pest or weed control at 62 g/ha ([3]; 62 g ai/ha)?
**A.** 95%

**Q.** And the pest or weed control at 125 g/ha ([3]; 125 g ai/ha)?
**A.** 95%

**Q.** And the pest or weed control at 250 g/ha ([3]; 250 g ai/ha)?
**A.** 95%

**Q.** And the pest or weed control at 31 g/ha ([4]; 31 g ai/ha)?
**A.** 15%

**Q.** What about the pest or weed control at 62 g/ha ([4]; 62 g ai/ha) of the same compound?
**A.** 20%

**Q.** And the pest or weed control at 125 g/ha ([4]; 125 g ai/ha)?
**A.** 15%

**Q.** And the pest or weed control at 250 g/ha ([4]; 250 g ai/ha)?
**A.** 25%

**Q.** And the pest or weed control at 31 g/ha ([5]; 31 g ai/ha, scale 0 (no effect) to 100 (complete control), read-out: Plant response rating, Radish, Wild)?
**A.** 30%

**Q.** And the pest or weed control at 62 g/ha ([5]; 62 g ai/ha, scale 0-100, read-out: Plant response rating, Radish, Wild)?
**A.** 80%

**Q.** What about the pest or weed control at 125 g/ha ([5]; 125 g ai/ha, scale 0-100, read-out: Plant response rating, Radish, Wild) of the same compound?
**A.** 95%

**Q.** What about the pest or weed control at 250 g/ha ([5]; 250 g ai/ha, scale 0-100, read-out: Plant response rating, Radish, Wild) of the same compound?
**A.** 100%

**Q.** And the pest or weed control at 31 g/ha ([6]; 31 g ai/ha)?
**A.** 0%

**Q.** And the pest or weed control at 62 g/ha ([6]; 62 g ai/ha)?
**A.** 0%

**Q.** And the pest or weed control at 125 g/ha ([6]; 125 g ai/ha)?
**A.** 35%

**Q.** And the pest or weed control at 250 g/ha ([6]; 250 g ai/ha)?
**A.** 55%

**Q.** What about the pest or weed control at 31 g/ha ([7]; 31 g ai/ha) of the same compound?
**A.** 80%

**Q.** What about the pest or weed control at 62 g/ha ([7]; 62 g ai/ha) of the same compound?
**A.** 90%

**Q.** What about the pest or weed control at 125 g/ha ([7]; 125 g ai/ha) of the same compound?
**A.** 90%

**Q.** And the pest or weed control at 250 g/ha ([7]; 250 g ai/ha)?
**A.** 90%

**Q.** What about the pest or weed control at 31 g/ha ([8]; 31 g ai/ha) of the same compound?
**A.** 15%

**Q.** And the pest or weed control at 62 g/ha ([8]; 62 g ai/ha)?
**A.** 20%

**Q.** What about the pest or weed control at 125 g/ha ([8]; 125 g ai/ha) of the same compound?
**A.** 40%

**Q.** What about the pest or weed control at 250 g/ha ([8]; 250 g ai/ha) of the same compound?
**A.** 75%

**Q.** And the pest or weed control at 31 g/ha ([9]; 31 g ai/ha, scale 0 (no effect) to 100 (complete control), read-out: Plant response rating, Windgrass)?
**A.** 50%

**Q.** What about the pest or weed control at 62 g/ha ([9]; 62 g ai/ha, scale 0-100, read-out: Plant response rating, Windgrass) of the same compound?
**A.** 70%

**Q.** What about the pest or weed control at 125 g/ha ([9]; 125 g ai/ha, scale 0-100, read-out: Plant response rating, Windgrass) of the same compound?
**A.** 100%

**Q.** And the pest or weed control at 250 g/ha ([9]; 250 g ai/ha, scale 0-100, read-out: Plant response rating, Windgrass)?
**A.** 100%

**Q.** And the pest or weed control at 31 g/ha ([10]; 31 g ai/ha)?
**A.** 70%

**Q.** And the pest or weed control at 62 g/ha ([10]; 62 g ai/ha)?
**A.** 80%

**Q.** What about the pest or weed control at 125 g/ha ([10]; 125 g ai/ha) of the same compound?
**A.** 95%

**Q.** What about the pest or weed control at 250 g/ha ([10]; 250 g ai/ha) of the same compound?
**A.** 100%

**Q.** And the pest or weed control at 31 g/ha ([11]; 31 g ai/ha)?
**A.** 35%

**Q.** What about the pest or weed control at 62 g/ha ([11]; 62 g ai/ha) of the same compound?
**A.** 35%

**Q.** What about the pest or weed control at 125 g/ha ([11]; 125 g ai/ha) of the same compound?
**A.** 50%

**Q.** What about the pest or weed control at 250 g/ha ([11]; 250 g ai/ha) of the same compound?
**A.** 60%
